From PubChem BioAssay AID1918998 (Molecular Pharmacology Branch, DTP, NCI, 2023)
“And” between values parts separate entries of the source, which are not always exact repeats. Identical values can stand only once.

System: 521955-158-R2-J5-PDC complex spheroid growth
Assay: Anticancer human tumor 521955-158-R2-J5-PDC patient-derived pancreatic carcinoma cell line growth inhibition [AhR]
Details: for viability, T/C: stronger effect = lower value
Source text: Multicellular complex tumor spheroid response to aryl hydrocarbon receptor antagonists in combination with a variety of drugs and investigational agents in selected tumor cell lines
The current study was undertaken to assess response to aryl hydrocarbon receptor antagonists in combination with standard-of-care drugs and investigational agents in solid tumor complex spheroid models. Complex spheroids include a stromal component modeled by human endothelial cells (HUVEC) and fibroblasts modeled by human mesenchymal stem cells (MSCs). The concentration ranges selected for each drug and investigational agent were based upon clinically achievable concentrations if the clinical Cmax of the agent was known.
Compounds. The drugs and investigational agents: BAY 2416964 (NSC825713), GNF351 (NSC835774), CH-223191 (NSC835775), CPI-455 (NSC825282), aza-TdCyd (NSC777586), decitabine (NSC127716), belinostat (NSC758774), entinostat (NSC756642), pevonedistat (NSC761192), tazemetostat (NSC777109), talazoparib (NSC765396), olaparib (NSC753686), selinexor (NSC780203), nedisertib (M3814, NSC802822), bortezomib (NSC756655), venetoclax (NSC766270), doxorubicin (NSC123127), elimusertib (BAY189344, NSC800525), ceralasertib (AZD6738, NSC777638), TAK-243 (NSC785004), alisertib (NSC759677), etoposide (NSC141540), topotecan (NSC609699), eribulin (NSC707389), gemcitabine (NSC613327), carboplatin (NSC241240), cisplatin (NSC119875), and SN-38 (NSC673596) were obtained from the National Cancer Institute (NCI) Developmental Therapeutics Program Chemical Repository (32). The FDA-approved anticancer drug set is available from the Developmental Therapeutics Program at https://dtp.cancer.gov/organization/dscb/obtaining/available plates.htm. […] The stock solutions were prepared in dimethyl sulfoxide (DMSO, Sigma-Aldrich, St. Louis, MO, cat. D2650), except for the platinum compounds which were prepared in saline (Quality Biological, Gaithersburg, MD, cat. 114-055-101), at 800-fold the tested concentration and stored at -70 degrees C prior to their use. All drugs and investigational agents were tested over a range starting from a high concentration at or near the clinical Cmax and decreasing in half-log increments. If the clinical Cmax for an agent had not been determined, the highest concentration tested was 10 microM (Table 1).
Cell Culture. All cells were maintained in an incubator at 37 degrees C and 5% CO2 with 95% humidity. The PDC lines were cultured according to standard operating procedures established by the NCI PDMR (https://pdmr.cancer.gov). Briefly, all PDCs were thawed and cultured in Matrigel-coated flasks prepared with a working solution of 1X Ham's F-12 nutrient mix, without supplementation (Invitrogen, Waltham, MA, cat. 11765054), 100 U/mL penicillin-streptomycin (Invitrogen, cat. 15140122), and 2.5% Matrigel (Corning Inc., Corning, NY, cat. 354248) for the first three passages. All PDCs were cultured in complete DMEM/F-12 media containing advanced DMEM/F-12 (Invitrogen, cat. 12634028), 4.9% defined fetal bovine serum, heat inactivated (HyClone Laboratories Inc., Logan, UT, cat. SH30070.03HI), 389 ng/mL hydrocortisone (Sigma-Aldrich, cat. H4001), 9.7 ng/mL human EGF recombinant protein (Invitrogen, cat. PHG0313), 23.4 microg/mL adenine (Sigma-Aldrich, cat. A2786), 97.3 U/mL penicillin-streptomycin (Invitrogen, cat. 15140122), 1.9 mM L-glutamine (Invitrogen, cat. 25030081), and 9.7 microM Y-27632 dihydrochloride (Tocris Bioscience, Bristol, United Kingdom, cat. 1254). The PDCs were cultured in complete DMEM/F12 media without 10 microM Y-27632 dihydrochloride for at least two passages prior to the screen. The established cell lines NCI-H1341 and […] were cultured in DMEM/F-12, HEPES (Invitrogen, cat. 11330032), 5% defined fetal bovine serum (HyClone Laboratories Inc., cat. SH30070.03), ITS premix universal culture supplement [insulin (5 microg/mL), transferrin (5 microg/mL), and selenious acid (5 ng/mL)] […]
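For viability, T/C in this document: spheroids mix tumor cells with HUVEC endothelium and human MSC stroma; luminescence taken as viability surrogate after a week of drug exposure.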

Cn1ncnc1C1c2n[nH]c(=O)c3cc(F)cc(c23)NC1c1ccc(F)cc1 (configuration not stated) + Cc1ccccc1N=Nc1ccc(NC(=O)c2ccnn2C)c(C)c1
IC50 (curve of first compound, second compound 0.1 µM): > 100 nM | IC50 (curve of first compound, second compound 0.316 µM): > 100 nM | IC50 (curve of first compound, second compound 1 µM): > 100 nM | IC50 (curve of first compound, second compound 3.16 µM): > 100 nM | IC50 (curve of first compound, second compound 10 µM): > 100 nM | viability, T/C (second compound 0.1 µM, first compound 0.000316 µM): 110% | viability, T/C (second compound 0.1 µM, first compound 0.001 µM): 115% | viability, T/C (second compound 0.1 µM, first compound 0.00316 µM): 108% | viability, T/C (second compound 0.1 µM, first compound 0.01 µM): 103% | viability, T/C (second compound 0.1 µM, first compound 0.0316 µM): 105% | viability, T/C (second compound 0.1 µM, first compound 0.1 µM): 75.4% | viability, T/C (second compound 0.316 µM, first compound 0.000316 µM): 111% | viability, T/C (second compound 0.316 µM, first compound 0.001 µM): 119% | viability, T/C (second compound 0.316 µM, first compound 0.00316 µM): 108% | viability, T/C (second compound 0.316 µM, first compound 0.01 µM): 98.5% | viability, T/C (second compound 0.316 µM, first compound 0.0316 µM): 97.8% | viability, T/C (second compound 0.316 µM, first compound 0.1 µM): 89.1% | viability, T/C (second compound 1 µM, first compound 0.000316 µM): 111% | viability, T/C (second compound 1 µM, first compound 0.001 µM): 107% | viability, T/C (second compound 1 µM, first compound 0.00316 µM): 138% | viability, T/C (second compound 1 µM, first compound 0.01 µM): 118% | viability, T/C (second compound 1 µM, first compound 0.0316 µM): 118% | viability, T/C (second compound 1 µM, first compound 0.1 µM): 115% | viability, T/C (second compound 3.16 µM, first compound 0.000316 µM): 140% | viability, T/C (second compound 3.16 µM, first compound 0.001 µM): 150% | viability, T/C (second compound 3.16 µM, first compound 0.00316 µM): 142% | viability, T/C (second compound 3.16 µM, first compound 0.01 µM): 154% | viability, T/C (second compound 3.16 µM, first compound 0.0316 µM): 128% | viability, T/C (second compound 3.16 µM, first compound 0.1 µM): 128% | viability, T/C (second compound 10 µM, first compound 0.000316 µM): 158% | viability, T/C (second compound 10 µM, first compound 0.001 µM): 148% | viability, T/C (second compound 10 µM, first compound 0.00316 µM): 158% | viability, T/C (second compound 10 µM, first compound 0.01 µM): 146% | viability, T/C (second compound 10 µM, first compound 0.0316 µM): 143% | viability, T/C (second compound 10 µM, first compound 0.1 µM): 141%

Nc1ncn(C2CC(O)C(CO)O2)c(=O)n1 (configuration not stated)
viability, T/C (compound 0.00316 µM): 92.7% and 87.2% and 101% | viability, T/C (compound 0.01 µM): 90.8% and 72.2% and 80.4% | viability, T/C (compound 0.0316 µM): 88.8% and 87.9% and 88.9% | viability, T/C (compound 0.1 µM): 73% and 52.6% and 68.5% | viability, T/C (compound 0.316 µM): 65.5% and 53.7% and 63% | viability, T/C (compound 1 µM): 48.3% and 38.4% and 39.5% | IC50 (curve of compound): 907 nM and 158 nM and 564 nM
